17 molecules from US20220340598A1, “PYRAZOLOPYRIDINONE COMPOUNDS” (Janssen Pharmaceutica NV, priority 2017, published 2022) can be followed below.

In assay [1] the target is T1, human FGFR3 wild type enzyme (cytoplasmic domain) (Homo sapiens, UniProt P22607).
T1 construct: human FGFR3 wild type enzyme (cytoplasmic domain, from Carna Biosciences)
The experiment in a line: FGFR3 wild type mobility shift assay (enzymatic assay). The following applies: 75 μM ATP, 50 minutes at 30° C., Caliper EZ reader II. The assay is classed as biochemical. As to the method:
FGFR3 Wild Type Mobility Shift Assay (Enzymatic Assay)
In a final reaction volume of 25 μL, 0.04 ng/μL human FGFR3 wild type enzyme (cytoplasmic domain, from Carna Biosciences) was incubated with 75 μM ATP, 1 μM FL-peptide 30 substrate and 250 nL of testing compound (1% DMSO final) in assay buffer (100 mM HEPES pH 7.4, 10 mM MgCl2, 0.003% Brij35, 1 mM DTT). After incubation for 50 minutes at 30° C. the reaction was stopped with 10 μL of 0.5M EDTA pH 8.0, and then 25 μL of reaction mixture was transferred to reading plate and measured on Caliper EZ reader II.

Assay [2] concerns the target T2, human FGFR3 V555M enzyme (cytoplasmic domain carrying V555M mutation) (Homo sapiens, UniProt P22607, V555M).
T2 construct: human FGFR3 V555M enzyme (cytoplasmic domain carrying V555M mutation, from Carna Biosciences)
The assay is described as follows: FGFR3 V555M mobility shift assay (enzymatic assay). Format: biochemical. The following applies: 30 μM ATP, 45 minutes at 30° C., Caliper EZ reader II. As for the experimental part: FGFR3 V555M Mobility Shift Assay (Enzymatic Assay)
In a final reaction volume of 25 μL, 0.04 ng/μL human FGFR3 V555M enzyme (cytoplasmic domain carrying V555M mutation, from Carna Biosciences) was incubated with 30 μM ATP, 1 μM FL-peptide 30 substrate and 250 nL of testing compound (1% DMSO final) in assay buffer (100 mM HEPES pH 7.4, 10 mM MgCl2, 0.003% Brij35, 1 mM DTT). After incubation for 45 minutes at 30° C. the reaction was stopped with 10 μL of 0.5M EDTA pH 8.0, and then 25 μL of reaction mixture was transferred to reading plate and measured on Caliper EZ reader II.

Assay [3] addresses T3, NIH/3T3 cells overexpressing FGFR3 WT-TACC3 fusion protein (Homo sapiens, UniProt P22607).
T3 construct: fused on or other part: Q9Y6A5 (Transforming acidic coiled-coil-containing protein 3)
The assay is described as follows: NIH/3T3 FGFR3 WT-TACC3 cell proliferation assay. The assay is classed as cell-based. The following applies: 72-hr incubation, CellTiter Glo; read-out: NIH/3T3 FGFR3 WT-TACC3 CTG (IC50). As for the experimental part: NIH/3T3 FGFR3 WT-TACC3 Cell Proliferation Assay
(§1) In day 1, 90 μL of cell suspension (NIH/3T3 cells overexpressing FGFR3 WT-TACC3 fusion protein) (total 30,000 cells per well in growth medium (DMEM containing 1% Glutamax, 10% FBS and 1% Pen/Strep)) was seeded in a 96-well plate and then incubated overnight at 37° C. and 5% CO2. In day 2, 10 μL of growth medium containing 10-fold stock solution of testing compound was added into cell cultures (9 dose points with 4× serial dilution, starting with 10 μM, 0.1% DMSO final). After 72-hr incubation at 37° C. and 5% CO2, in day 5 a volume of 50 μL CellTiter Glo (CTG) reagent was added into cell-containing 96-well plate and the plate was incubated at room temperature for 10 minutes before RLUs (relative light unit) were measured on a microplate reader with luminescence detection module. The RLU value was normalized to survival % and concentration-response curve was plotted using Prism to calculate IC50 (M), pIC50 (−log IC50) and HillSlope value.
In general terms: Cellular ATP, detected with luciferase, serves as a proxy for viable cell number.

Assay [4] has as its target T4, NIH/3T3 cells overexpressing FGFR3 V555M-TACC3 fusion protein (Homo sapiens, UniProt P22607, V555M, cells depend on it).
T4 construct: fused on or other part: Q9Y6A5 (Transforming acidic coiled-coil-containing protein 3)
The experiment in a line: NIH/3T3 FGFR3 V555M-TACC3 cell proliferation assay. Format: cell-based. The conditions noted are these: 72-hr incubation, CellTiter Glo; read-out: NIH/3T3 FGFR3 V555M-TACC3 CTG (IC50). As to the method:
NIH/3T3 FGFR3 V555M-TACC3 Cell Proliferation Assay
as §1, with “V555M-TACC3” for “WT-TACC3”

T2 sequence (P22607 397-806 V555M): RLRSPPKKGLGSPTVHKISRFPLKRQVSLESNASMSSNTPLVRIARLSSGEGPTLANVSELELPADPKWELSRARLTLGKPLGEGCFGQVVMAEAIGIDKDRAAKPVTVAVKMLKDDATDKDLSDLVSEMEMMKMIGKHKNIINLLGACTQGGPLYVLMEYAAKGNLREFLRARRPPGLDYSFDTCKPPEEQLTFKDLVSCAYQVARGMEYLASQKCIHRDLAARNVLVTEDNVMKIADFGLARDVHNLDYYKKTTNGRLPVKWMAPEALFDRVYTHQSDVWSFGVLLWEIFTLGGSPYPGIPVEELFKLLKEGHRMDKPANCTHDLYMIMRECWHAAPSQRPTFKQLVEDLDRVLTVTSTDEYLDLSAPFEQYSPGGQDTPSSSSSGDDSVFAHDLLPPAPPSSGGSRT
T4 sequence (P22607 whole entry V555M, the tested form may be a part): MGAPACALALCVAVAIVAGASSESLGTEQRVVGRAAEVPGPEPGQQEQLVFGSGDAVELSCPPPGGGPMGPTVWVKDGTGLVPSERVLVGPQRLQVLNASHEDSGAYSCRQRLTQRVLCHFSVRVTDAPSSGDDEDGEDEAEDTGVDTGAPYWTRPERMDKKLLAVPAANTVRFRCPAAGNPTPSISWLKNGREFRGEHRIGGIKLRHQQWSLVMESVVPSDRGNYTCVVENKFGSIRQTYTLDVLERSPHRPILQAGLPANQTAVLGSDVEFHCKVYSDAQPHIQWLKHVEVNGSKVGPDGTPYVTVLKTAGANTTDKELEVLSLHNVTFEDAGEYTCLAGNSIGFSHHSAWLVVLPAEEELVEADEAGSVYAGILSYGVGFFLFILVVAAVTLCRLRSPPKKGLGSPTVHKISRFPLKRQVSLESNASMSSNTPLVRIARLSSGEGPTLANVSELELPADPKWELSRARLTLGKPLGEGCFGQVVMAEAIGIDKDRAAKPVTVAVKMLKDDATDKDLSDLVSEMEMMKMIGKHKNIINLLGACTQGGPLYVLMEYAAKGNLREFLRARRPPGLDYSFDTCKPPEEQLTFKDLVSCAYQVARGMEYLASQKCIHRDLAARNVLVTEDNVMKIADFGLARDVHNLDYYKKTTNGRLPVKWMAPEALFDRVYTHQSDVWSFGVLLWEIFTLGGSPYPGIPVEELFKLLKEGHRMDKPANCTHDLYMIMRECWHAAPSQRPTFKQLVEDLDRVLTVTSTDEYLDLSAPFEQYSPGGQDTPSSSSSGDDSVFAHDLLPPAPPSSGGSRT
T3 sequence (P22607 whole entry, change not shown, the tested form may be a part): as the sequence (P22607 whole entry V555M, the tested form may be a part) above, with M555V counted along it
T1 sequence (P22607 397-806): as the sequence (P22607 397-806 V555M) above, with M159V counted along it

In general, IC50 refers to the midpoint of a concentration-inhibition curve. As to `CCn1cc2[nH]c(=O)c(-c3nc4cc(OC)c(OC)cc4[nH]3)c(NC(C)c3cocn3)c2n1` (single isomer, unassigned) [Compound 5C, (R*)-6-(5,6-Dimethoxy-1H-benzo[d]imidazol-2-yl)-2-ethyl-7-((1-(oxazol-4-yl)ethyl)amino)-2H-pyrazolo[4,3-b]pyridin-5(4H)-one], the IC50 in assay [1] is 978 nM; in assay [2] it was 315 nM.

Turning to `CC[C@H](Nc1c(-c2nc3ccc(OC)cc3[nH]2)c(=O)[nH]c2cn(C)nc12)c1ncccn1` (single isomer, unassigned) [Compound 16, (S*)-6-(6-Methoxy-1H-benzo[d]imidazol-2-yl)-2-methyl-7-((1-(pyrimidin-2-yl)propyl)amino)-2H-pyrazolo[4,3-b]pyridin-5(4, H)-one], the IC50 amounted to 1360 nM in assay [1] and 342 nM in assay [2].

On to `CCn1cc2[nH]c(=O)c(-c3nc4ccc(OC)cc4[nH]3)c(N[C@H](C)c3cocn3)c2n1` (single isomer, unassigned) [Compound 34, (R*)-2-ethyl-6-(6-methoxy-H-benzo[d]imidazol-2-yl)-7-((1-(oxazol-4-yl)ethyl)amino)-2H-pyrazolo[4,3-b]pyridin-5(4H)-one], for which the IC50 was determined as 39.5 nM in assay [1] and 32.8 nM in assay [2].

Consider `COCCOc1cc2[nH]c(-c3c(NC(c4ncccn4)C(C)C)c4nn(C)cc4[nH]c3=O)nc2cc1OC` (single isomer, unassigned) [Compound 36, (S*)-6(5-methoxy-6-(2-methoxyethoxy)-1H-benzo[d]imidazol-2-yl)-2-methyl-7-((2-methyl-1-(pyrimidin-2-yl)propyl)amino)-2H-pyrazolo[4,3-b]pyridin-5(4H)-one], for which the IC50 in assay [1] was 7.75 nM. The GI50 in assay [3] came out at 25 nM; in assay [4], 21.5 nM.

As to `CCC(Nc1c(-c2nc3cc(OC)c(OC)cc3[nH]2)c(=O)[nH]c2cn(CC)nc12)c1ncccn1` (single isomer, unassigned) [Compound 45, (R*)-6-(5,6-dimethoxy-1H-benzo[d]imidazol-2-yl)-2-ethyl-7-((1-(pyrimidin-2-yl)propyl)amino)-2H-pyrazolo[4,3-b]pyridin-5(4H)-one], the IC50 worked out at 602 nM in assay [1] and 347 nM in assay [2].

Turning to `C[C@H](Nc1c(-c2nc3ccc(F)cc3[nH]2)c(=O)[nH]c2cn(C)nc12)c1ncccn1` [Compound 28, (S)-6-(6-Fluoro-1H-benzo[d]imidazol-2-yl)-2-methyl-7-((1-(pyrimidin-2-yl)ethyl)amino)-2H-pyrazolo[4,3-b]pyridin-5(4H)-one], the IC50 in assay [1] came out at 7.14 nM. Moreover, the GI50 in assay [3] amounted to 73.8 nM; in assay [4] it was 13.3 nM.

Take `COc1cc(OC)c2nc(-c3c(N[C@@H](C)c4ncccn4)c4nn(C)cc4[nH]c3=O)[nH]c2c1` [Compound 29, (S)-6-(4,6-Dimethoxy-1H-benzo[d]imidazol-2-yl)-2-methyl-7-((1-(pyrimidin-2-yl)ethyl)amino)-2H-pyrazolo[4,3-b]pyridin-5(4H)-one]: the GI50 in assay [3] is 16 nM; in assay [4], 20.8 nM.

On to `COc1cc2[nH]c(-c3c(N[C@@H](C)c4ncccn4)c4nn(C)cc4[nH]c3=O)nc2cn1` [Compound 30, (S)-6-(6-methoxy-1H-imidazo[4,5-c]pyridin-2-yl)-2-methyl-7-((1-(pyrimidin-2-yl)ethyl)amino)-2H-pyrazolo[4,3-b]pyridin-5(4H)-one], for which the GI50 was 11.1 nM in assay [3] and 7.88 nM in assay [4].

With `CCn1cc2[nH]c(=O)c(-c3nc4c(OC)cccc4[nH]3)c(N[C@@H](C)c3ncccn3)c2n1` [Compound 32, (S)-2-ethyl-6-(4-methoxy-1H-benzo[d]imidazol-2-yl)-7-((1-(pyrimidin-2-yl)ethyl)amino)-2H-pyrazolo[4,3-b]pyridin-5(4H)-one], the GI50 in assay [3] came out at 43.2 nM; in assay [4], 69.6 nM.

On to `CCn1cc2[nH]c(=O)c(-c3nc4cc(OC)c(OC)cc4[nH]3)c(N[C@@H](C)c3ncccn3)c2n1` [Compound 37, (S)-6-(5,6-dimethoxy-1H-benzo[d]imidazol-2-yl)-2-ethyl-7-((1-(pyrimidin-2-yl)ethyl)amino)-2H-pyrazolo[4,3-b]pyridin-5(4H)-one], for which the GI50 was found to be 16.8 nM in assay [3] and 29.6 nM in assay [4].

As for `CCn1cc2[nH]c(=O)c(-c3nc4c(F)c(OC)c(OC)cc4[nH]3)c(N[C@@H](C)c3ncccn3)c2n1` [Compound 41, (S)-2-ethyl-6-(4-fluoro-5,6-dimethoxy-1H-benzo[d]imidazol-2-yl)-7-((1-(pyrimidin-2-yl)ethyl)amino)-2H-pyrazolo[4,3-b]pyridin-5(4H)-one], the GI50 in assay [3] is 46.5 nM; in assay [4] it was 55.6 nM.

As to `CCOc1ccc2nc(-c3c(N[C@@H](C)c4ncccn4)c4nn(CC)cc4[nH]c3=O)[nH]c2c1` [Compound 50, (S)-6-(6-ethoxy-1H-benzo[d]imidazol-2-yl)-2-ethyl-7-((1-(pyrimidin-2-yl)ethyl)amino)-2,4-dihydro-5H-pyrazolo[4,3-b]pyridin-5-one], the GI50 amounted to 28.7 nM in assay [3] and 40.9 nM in assay [4].

For the molecule `CCOc1cc2nc(-c3c(N[C@@H](C)c4ncccn4)c4nn(CC)cc4[nH]c3=O)[nH]c2cc1OCC` [Compound 52, (S)-6-(5,6-diethoxy-1H-benzo[d]imidazol-2-yl)-2-ethyl-7-((1-(pyrimidin-2-yl)ethyl)amino)-2H-pyrazolo[4,3-b]pyridin-5(4H)-one], the GI50 was determined as 16.1 nM in assay [3] and 18.8 nM in assay [4].

For `CCOc1cc2nc(-c3c(N[C@@H](C)c4ncccn4)c4nn(C)cc4[nH]c3=O)[nH]c2cc1OCC` [Compound 53, (S)-6-(5,6-diethoxy-1H-benzo[d]imidazol-2-yl)-2-methyl-7-((1-(pyrimidin-2-yl)ethyl)amino)-2,4-dihydro-5H-pyrazolo[4,3-b]pyridin-5-one], the GI50 in assay [3] is 3.19 nM; in assay [4], 4.15 nM.

Consider `CCn1cc2[nH]c(=O)c(-c3nc4ccc(OCCOC)cc4[nH]3)c(N[C@@H](C)c3ncccn3)c2n1` [Compound 54, (S)-2-ethyl-6-(6-(2-methoxyethoxy)-1H-benzo[d]imidazol-2-yl)-7-((1-(pyrimidin-2-yl)ethyl)amino)-2H-pyrazolo[4,3-b]pyridin-5(4H)-one], for which the figures for the GI50 in assay [3] and in assay [4] were 11.5 nM and 21.6 nM, respectively.

Turning to `COc1cc2[nH]c(-c3c(N[C@@H](C)c4ncccn4)c4nn(C)cc4[nH]c3=O)nc2c(F)c1OC` [Compound 55, (S)-6-(4-fluoro-5,6-dimethoxy-1H-benzo[d]imidazol-2-yl)-2-methyl-7-((1-(pyrimidin-2-yl)ethyl)amino)-2H-pyrazolo[4,3-b]pyridin-5(4H)-one], the results for the GI50 in assay [3] and in assay [4] were 17400 nM and 11.8 nM, respectively.

With `COc1cc2nc(-c3c(N[C@@H](C)c4ccccn4)c4nn(C)cc4[nH]c3=O)[nH]c2cc1OC` [Compound 56, (S)-6-(5,6-dimethoxy-1H-benzo[d]imidazol-2-yl)-2-methyl-7-((1-(pyridin-2-yl)ethyl)amino)-2H-pyrazolo[4,3-b]pyridin-5(4H)-one], the GI50 in assay [3] turned out to be 18.4 nM; in assay [4], 13.1 nM.
